According to ChEMBL document CHEMBL1130170, “Orally active trifluoromethyl ketone inhibitors of human leukocyte elastase” (J Med Chem, 1997):
Where a SMILES comes first, the peptide text is derived from it. [ ]: non-standard residue; d: D form. The star is where a group is joined. ξ: configuration not given here. Cbz = O=C(OCc1ccccc1)*; ξV = CC(C)C(N)C(=O)O; CF3 = FC(F)(F)*; Moc = COC(=O)*

How the values were obtained:
Neutrophil elastase = molecular target: T1, Neutrophil elastase (Homo sapiens, UniProt P08246); assay: Binding affinity for human leukocyte elastase
T1 sequence (P08246 whole entry): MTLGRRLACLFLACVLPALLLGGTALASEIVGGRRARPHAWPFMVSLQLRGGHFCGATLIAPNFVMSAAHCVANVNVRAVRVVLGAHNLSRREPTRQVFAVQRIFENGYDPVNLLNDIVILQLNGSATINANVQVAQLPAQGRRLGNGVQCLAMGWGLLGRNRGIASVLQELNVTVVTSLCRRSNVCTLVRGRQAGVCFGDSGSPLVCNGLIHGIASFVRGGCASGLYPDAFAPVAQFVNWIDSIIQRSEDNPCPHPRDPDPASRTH

Cricetinae gen. sp. [1] = assay: Percent inhibition of elastase-induced lung damage by 10 mg/kg dosed orally, 30 minutes prior to the instillation of 50 ug of elastase; type: functional, Cricetulus griseus; settings: Cricetinae gen. sp., po
Cricetinae gen. sp. [2] = assay: Effective dose in the Acute Hemarrhagic Assay model after oral administration; type: functional, Cricetulus griseus

Ki (Neutrophil elastase) [nM] | SMILES | inhibition in vivo at 10 mg/kg (Cricetinae gen. sp. [1]) [%] | ED50 (Cricetinae gen. sp. [2]) [mg/kg]
8.9 | CCCNC(=O)C(F)(F)C(=O)[C@@H](NC(=O)[C@@H]1CCCN1C(=O)[C@@H](NC(=O)c1ccc(OC)cc1)C(C)C)C(C)C | 17 | –
– | COc1ccc(C(=O)N[C@H](C(=O)N2CCC[C@H]2C(=O)N[C@H](C(=O)C(F)(F)CN)C(C)C)C(C)C)cc1 | 10 | –
0.35 | CC(C)[C@H](NC(=O)Oc1ccccc1)C(=O)N1CCC[C@H]1C(=O)N[C@H](C(=O)C(F)(F)CNC(=O)c1cccnc1)C(C)C | 46 | –
0.65 | COC(=O)c1ccc2oc(C(=O)[C@@H](NC(=O)[C@@H]3CCCN3C(=O)[C@@H](NC(=O)c3ccc(OC)cc3)C(C)C)C(C)C)nc2c1 | 0 | –
0.35 | CCCCOC(=O)NCC(F)(F)C(=O)[C@@H](NC(=O)[C@@H]1CCCN1C(=O)[C@@H](NC(=O)Oc1ccccc1)C(C)C)C(C)C | 0 | –
– | CC(C)[C@H](NC(=O)Oc1ccccc1)C(=O)N1CCC[C@H]1C(=O)N[C@H](C(=O)C(F)(F)CNCc1ccccc1)C(C)C | 18 | –
0.64 | COC(=O)c1ccc2oc(C(=O)[C@@H](NC(=O)[C@@H]3CCCN3C(=O)[C@@H](NC(=O)Oc3ccccc3)C(C)C)C(C)C)nc2c1 | 12 | –
4.7 | CC(C)[C@H](NC(=O)[C@@H]1CCCN1C(=O)[C@@H](NC(=O)OCc1ccccc1)C(C)C)C(=O)c1nc2ccccc2o1 | 0 | –
3.1 | COc1ccc(C(=O)N[C@H](C(=O)N2CCC[C@H]2C(=O)N[C@H](C(=O)C(F)(F)C(=O)NCc2ccccn2)C(C)C)C(C)C)cc1 | 43 | –
6.4 | COc1ccc(C(=O)N[C@H](C(=O)N2CCC[C@H]2C(=O)N[C@H](C(=O)C(F)(F)CNC(=O)c2ccccc2)C(C)C)C(C)C)cc1 | 18 | –
– | CC(C)[C@H](NC(=O)Oc1ccccc1)C(=O)N1CCC[C@H]1C(=O)N[C@H](C(=O)C(F)(F)CN)C(C)C | 45 | –
2.3 | CC(=O)NCC(F)(F)C(=O)[C@@H](NC(=O)[C@@H]1CCCN1C(=O)[C@@H](NC(=O)Oc1ccccc1)C(C)C)C(C)C | 42 | –
33 | CC(C)OC(=O)N[C@H](C(=O)N1CCC[C@H]1C(=O)NC(C(=O)C(F)(F)F)C(C)C)C(C)C (stereo partly specified) | 69 | –
1.7 | CC(C)[C@H](NC(=O)Oc1ccccc1)C(=O)N1CCC[C@H]1C(=O)N[C@H](C(=O)C(F)(F)C(=O)NCc1ccccn1)C(C)C | 69 | –
3.4 | CCCCOC(=O)NCC(F)(F)C(=O)[C@@H](NC(=O)[C@@H]1CCCN1C(=O)[C@@H](NC(=O)c1ccc(OC)cc1)C(C)C)C(C)C | 24 | –
– | COc1ccc(C(=O)N[C@H](C(=O)N2CCC[C@H]2C(=O)N[C@H](C(=O)C(F)(F)CNCc2ccccc2)C(C)C)C(C)C)cc1 | 17 | –
1.1 | CCCCOC(=O)NCC(F)(F)C(=O)[C@@H](NC(=O)[C@@H]1CCCN1C(=O)[C@@H](NC(=O)OCc1ccccc1)C(C)C)C(C)C | 0 | –
0.58 | COC(=O)c1ccc2oc(C(=O)[C@@H](NC(=O)[C@@H]3CCCN3C(=O)[C@@H](NC(=O)OCc3ccccc3)C(C)C)C(C)C)nc2c1 | 34 | –

Ki (Neutrophil elastase) [nM] | SMILES | inhibition in vivo at 10 mg/kg (Cricetinae gen. sp. [1]) [%] | ED50 (Cricetinae gen. sp. [2]) [mg/kg]
1.9 | CC(C)[C@H](NC(=O)OC1CCCC1)C(=O)N1CCC[C@H]1C(=O)N[C@H](C(=O)C(F)(F)F)C(C)C | 43 | –
43 | CCOC(=O)N[C@H](C(=O)N1CCC[C@H]1C(=O)N[C@H](C(=O)C(F)(F)F)C(C)C)C(C)C | 74 | –
17 | CC(C)[C@H](NC(=O)COc1ccccc1)C(=O)N1CCC[C@H]1C(=O)N[C@H](C(=O)C(F)(F)F)C(C)C | 8 | –
20 | CC(C)COC(=O)N[C@H](C(=O)N1CCC[C@H]1C(=O)N[C@H](C(=O)C(F)(F)F)C(C)C)C(C)C | 3 | –
8 | COc1ccc(C(=O)N[C@H](C(=O)N2CCC[C@H]2C(=O)N[C@H](C(=O)c2nc3cc(NC(C)=O)ccc3o2)C(C)C)C(C)C)cc1 | 11 | –
– | CC(C)[C@H](NC(=O)OCc1ccccc1)C(=O)N1CCC[C@H]1C(=O)N[C@H](C(=O)C(F)(F)C(N)=O)C(C)C | 17 | –
– | CNC(=O)C(F)(F)C(=O)[C@@H](NC(=O)[C@@H]1CCCN1C(=O)[C@@H](NC(=O)Oc1ccccc1)C(C)C)C(C)C | 80 | –
3.8 | CNC(=O)C(F)(F)C(=O)[C@@H](NC(=O)[C@@H]1CCCN1C(=O)[C@@H](NC(=O)c1ccc(OC)cc1)C(C)C)C(C)C | 25 | –
– | CNC(=O)C(F)(F)C(=O)[C@@H](NC(=O)[C@@H]1CCCN1C(=O)[C@@H](NC(=O)OCc1ccccc1)C(C)C)C(C)C | 7 | –
0.06 | CC(C)[C@H](NC(=O)c1ccc(C(=O)NS(=O)(=O)c2ccccc2)cc1)C(=O)N1CCC[C@H]1C(=O)N[C@H](C(=O)C(F)(F)C(=O)NCCc1ccccc1)C(C)C | – | –
5.8 | CC(C)OC(=O)N[C@H](C(=O)N1CCC[C@H]1C(=O)N[C@H](C(=O)C(F)(F)F)C(C)C)C(C)C | 80 | 3
– | CC(C)[C@H](NC(=O)OCc1ccccc1)C(=O)N1CCC[C@H]1C(=O)N[C@H](C(=O)C(F)(F)CNCc1ccccc1)C(C)C | 0 | –
58 | COc1ccc(C(=O)N[C@H](C(=O)N2CCC[C@H]2C(=O)N[C@@H](C(=O)C(F)(F)C(=O)NCc2ccccn2)C(C)C)C(C)C)cc1 | 31 | –
1.5 | CC(C)[C@H](NC(=O)Oc1ccccc1)C(=O)N1CCC[C@H]1C(=O)N[C@H](C(=O)C(F)(F)F)C(C)C | 93 | –
– | CC(C)[C@H](NC(=O)OCc1ccccc1)C(=O)N1CCC[C@H]1C(=O)N[C@H](C(=O)C(F)(F)F)C(C)C (Cbz-Val-Pro-Val-CF3) | 42 | –
– | COC(=O)N[C@H](C(=O)N1CCC[C@H]1C(=O)NC(C(=O)C(F)(F)F)C(C)C)C(C)C (stereo partly drawn) (Moc-Val-Pro-[ξV]-CF3) | 92 | –
– | COc1ccc(C(=O)N[C@H](C(=O)N2CCC[C@H]2C(=O)N[C@H](C(=O)C(F)(F)F)C(C)C)C(C)C)cc1 (stereo in doubt; 1a) | 70 | –

SMILES | Ki (Neutrophil elastase) [nM] | inhibition in vivo at 10 mg/kg (Cricetinae gen. sp. [1]) [%] | ED50 (Cricetinae gen. sp. [2]) [mg/kg]
COC(=O)c1ccc2nc(C(=O)[C@@H](NC(=O)[C@@H]3CCCN3C(=O)[C@@H](NC(=O)Oc3ccccc3)C(C)C)C(C)C)oc2c1 | 0.64 | 27 | –
